According to patent US20090075898A1, “Complement C3A Derived Peptides and Uses Thereof” (Yeda Research and Development Co. Ltd. at the Weizmann …, priority 2005, published 2009):
Square brackets hold non-standard residues; d marks the D form. Ends that are not written are not given here.

What was measured:
[1] = test system: bone marrow derived mast cells (BMMC); experiment: Secretory response (β-hexosaminidase release) of bone marrow derived mast cells; type: cell-based, mouse
Procedure: Cells. Bone marrow derived mast cells (BMMC) were prepared from Balb/c mice as described by Nagao et al. (Science 212: 333-335, 1981). After 3 weeks, an approximately 95% pure mast cell population was obtained, showing high expression of FcεRI and stem cell factor receptor (c-kit), as measured by flow cytometry.
Secretory response of mast cells.
Similar experiments were carried out using bone-marrow derived mast cells (BMMC). […] The control peptide of the sequence DVSNYITR had no effect on either system.

RBL-2H3 cells = settings: for Inhibition of IgE-mediated β-hexosaminidase release from RBL-2H3 cells: peptides 5 min prior to suboptimal (5 ng/ml) antigen dose; for Inhibition of IgE-mediated β-hexoseaminidase secretion from RBL-2H3 (FIG. 1B): 250 μg of peptide
Lyn = experiment: Phosphorylation of Lyn in RBL-2H3 cells, Western blot; type: cell-based, rat; settings: for Phosphorylation of Lyn: cells stimulated by antigen in the presence of peptide
Procedure: Immunoprecipitation and Western blot. Mast cells were seeded in 10 cm Petri dishes (7×10^6 cells/dish) and saturated with A2IgE at 37° C. in DMEM overnight. […] The reaction was terminated by 500 μl lysis buffer (1% Triton X-100, 50 mM HEPES, 100 mM NaF, 10 mM EDTA, 2 mM sodium orthovanadate, 10% glycerol, 10 mM sodium pyrophosphate, protease inhibitor cocktail 1:200, pH 7.4) per dish. The cells were scraped and the protein content of the post nuclear supernatants was adjusted to equal values using the Bradford-assay prior to precipitation by PT-66 phosphotyrosine specific antibody coated beads (10 μl beads per sample). The proteins were eluted by sample buffer containing 2-mercaptoethanol and were separated by SDS-PAGE, electrotransferred onto a nitrocellulose membrane and developed using the indicated antibodies and detected by ECL.
(§1) These are known to include phosphorylation by the src-family PTK Lyn of the ITAMs of the FcεRI β and γ subunits.
(§2) The inhibitory action of the peptide C3a31 on the FcεRI coupling cascade was also investigated using the rat mucosal-type RBL-2H3 line.

PLCγ-2 = PLCγ-2 phosphorylation in RBL-2H3 cells; type: cell-based, rat
[2] = test system: ovalbumin-sensitized asthmatic mice; experiment: Murine asthma model, lung function by plethysmography; type: in vivo, mouse; settings: peptide aerosol prior to final ovalbumin challenge
Procedure: (§3) Inhibitory effect of the peptides on pulmonary functions. Mice (Balb/c, female, 8 weeks old) were first sensitized by ip injection of the antigen (Ag) ovalbumin. Thereafter, the mice were challenged 4 times by aerosol inhalation of the same Ag dispersed by nebulizer in a plexiglass chamber for about 20 min at one-week intervals. On day 28, the mice were first treated with an aerosol of the tested peptides dissolved in 0.1 M NaHCO3 and dispersed as above. As a result, the aerosol was inhaled by the animals for about 10 to 20 minutes. After inhalation, the animals were immediately challenged by inhalation (as above) of the sensitizing antigen (5% OVA in PBS) for 20 min. At the end of this treatment, the mice were immediately tested for pulmonary functions in conscious, freely moving state using plethysmography.
The degree of bronchial constriction was monitored by the enhanced pause and its relation to airway resistance, impedance and intrapleural pressure in the mouse. Bronchoalveolar lavage (BAL) samples were obtained from these mice by cannulating the trachea, injecting 0.8 ml ice-cold saline (×2) and subsequently aspirating the BAL fluid. Following these tests, mice were sacrificed using general anesthesia with brevital (1 mg/ml). Their chests wall were opened, blood withdrawn and lungs were perfused with cold PBS and examined for cytology and histology. […]

[3] = test system: ovalbumin-sensitized asthmatic mice; experiment: Murine asthma model, cell distribution in broncho alveolar lavage; type: in vivo, mouse
Procedure: as §3
The degree of bronchial constriction was monitored by the enhanced pause and its relation to airway resistance, impedance and intrapleural pressure in the mouse. Bronchoalveolar lavage (BAL) samples were obtained from these mice by cannulating the trachea, injecting 0.8 ml ice-cold saline (×2) and subsequently aspirating the BAL fluid. Following these tests, mice were sacrificed using general anesthesia with brevital (1 mg/ml). Their chests wall were opened, blood withdrawn and lungs were perfused with cold PBS and examined for cytology and histology.
Table 3 provides results of analysis of the cells present in bronchi alveolar lavage (BAL) of mice treated by the same protocols as those subjected to analysis of lung function.

FcεRI β chain = experiment: Phosphorylation of FcεRI β chain in RBL-2H3 cells, Western blot; type: cell-based, rat; settings: cells stimulated by antigen in the presence of peptide
Procedure: Immunoprecipitation and Western blot. Mast cells were seeded in 10 cm Petri dishes (7×10^6 cells/dish) and saturated with A2IgE at 37° C. in DMEM overnight. After washing they were treated with peptides for 5 min and FcεRI was clustered by incubating with 5 ng/ml DNP11-BSA at 37° C. for 2 min. The reaction was terminated by 500 μl lysis buffer (1% Triton X-100, 50 mM HEPES, 100 mM NaF, 10 mM EDTA, 2 mM sodium orthovanadate, 10% glycerol, 10 mM sodium pyrophosphate, protease inhibitor cocktail 1:200, pH 7.4) per dish. The cells were scraped and the protein content of the post nuclear supernatants was adjusted to equal values using the Bradford-assay prior to precipitation by PT-66 phosphotyrosine specific antibody coated beads (10 μl beads per sample). The proteins were eluted by sample buffer containing 2-mercaptoethanol and were separated by SDS-PAGE, electrotransferred onto a nitrocellulose membrane and developed using the indicated antibodies and detected by ECL.
as §1, §2

Dok-1 = Dok-1 phosphorylation in RBL-2H3 cells; type: cell-based, rat
Procedure: (§4) The inhibitory action of the peptide C3a31 on the FcεRI coupling cascade was also investigated using the rat mucosal-type RBL-2H3 line. Results of these experiments have shown that peptide C3a31 inhibited the phosphorylation of the protein tyrosine kinase Lyn and of the FcεRI β-chain. The inhibition on Lyn phosphorylation was observed after 1 min, and that on PAG phosphorylation (PAG has an important role in the regulation of src family kinases) after 3 min. However, C3a31 was also shown to enhance Lyn phosphorylation after 3 min. In addition, C3a31 inhibited Dok-1 phosphorylation after 5 min, but had no effect after 8 min.

PAG = PAG phosphorylation in RBL-2H3 cells; type: cell-based, rat
Procedure: as §4

[4] = test system: passive systemic anaphylaxis in mice; experiment: Passive systemic anaphylaxis, blood histamine; type: in vivo, mouse; settings: peptide solution onto the nostrils before DNP-HSA antigen
Procedure: Passive Systemic Anaphylaxis. Mice (Balb/c) were anesthetized with 300-400 μl of avertin and injected with 3 μg of the IgE class DNP-specific monoclonal antibody (SPE-7, Sigma) in 200 μl PBS by retroorbital injection (or tail vein). After 24 hours, mice were anesthetized with 300-400 μl of avertin and exposed to ca. 100 μl of the indicated peptide (inhibitory, SEQ ID NO:11, a control reversed peptide of SEQ ID NO:35 or peptide GAKDGNEYI-COOH of SEQ ID NO:36) solution in PBS positioned onto the nostrils. This was followed by injection of the antigen (DNP-derivatized human serum albumin, HSA, 100 μg in 200 μl of PBS) or PBS only, by retroorbital injection (or tail vein). After 1.5 minutes, mice were sacrificed by cervical dislocation and cardiac puncture performed. Heparin-rinsed syringes were now used for aspiration. Blood samples were spun at 4 degrees for 10 minutes at 8000 rpm in tabletop. Histamine was assayed by the Immunotech protocol for competitive ALP assay.
The effect of C3a derived peptides on passive systemic anaphylaxis in mice was examined. […] The reverse peptide denoted C3a55 amide was ineffective (FIG. 5). A control group was treated with a non-relevant peptide having the amino acid sequence GAKDGNEYI-COOH of SEQ ID NO:36 prior to the injection of the antigen DNP-HSA.

Substance: DVSNYITR [Control peptide, reference compound]
- Inhibition of IgE-mediated secretory response of BMMC [1]: had no effect
- Inhibitory effect (IC50) on the IgE-mediated degranulation of BMMC ([1]; suboptimal antigen-dose): No effect
- Inhibition of IgE-mediated β-hexosaminidase release from RBL-2H3 cells (RBL-2H3 cells): had no effect
- Inhibitory effect (IC50) on the IgE-mediated degranulation of RBL-2H3 (RBL-2H3 cells; suboptimal antigen-dose): No effect
- Phosphorylation of Lyn (Lyn): had no effect

Substance: D-Ala-D-Ala-Asp-Ser-Ser-Asn-Tyr-Ile-Thr-Arg-NH2 ([dA][dA]DSSNYITR-NH2; N-terminus assumed; SMILES CC[C@H](C)[C@H](NC(=O)[C@H](Cc1ccc(O)cc1)NC(=O)[C@H](CC(N)=O)NC(=O)[C@H](CO)NC(=O)[C@H](CO)NC(=O)[C@H](CC(=O)O)NC(=O)[C@@H](C)NC(=O)[C@@H](C)N)C(=O)N[C@H](C(=O)N[C@@H](CCCNC(=N)N)C(N)=O)[C@@H](C)O) [C3a32]
- Inhibition of IgE-mediated β-hexoseaminidase secretion from RBL-2H3 (FIG. 1B) (RBL-2H3 cells): found to inhibit

Substance: Ser-Asp-Ser-Ser-Asn-Tyr-Ile-Thr-Arg-NH2 (SDSSNYITR-NH2) [C3a31]
- Inhibition of IgE-mediated β-hexoseaminidase secretion from RBL-2H3 (FIG. 1B) (RBL-2H3 cells): found to inhibit
- Phosphorylation of PLCγ-2 (PLCγ-2): inhibited
- Antigen-induced symptoms (lung airway resistance) in asthma model [2]: effective in reducing
- Eosinophils in BAL ([3]; OVA + peptide aerosol): 4%
- Lymphocutes in BAL ([3]; OVA + peptide aerosol): 81%
- Macrophages in BAL ([3]; OVA + peptide aerosol): 1%
- Mast Cells in BAL ([3]; OVA + peptide aerosol): 4%
- Neutrophils in BAL ([3]; OVA + peptide aerosol): 13%
- Type of cells detected in the BAL ([3]; peptide aerosol treatment): markedly affected
- Lyn phosphorylation after 1 min (Lyn; after 1 min): inhibition
- Lyn phosphorylation after 3 min (Lyn; after 3 min): enhance
- Phosphorylation of Lyn (Lyn): inhibited
- Phosphorylation of the FcεRI β chain (FcεRI β chain): inhibited
- Dok-1 phosphorylation after 5 min (Dok-1; after 5 min): inhibited
- Dok-1 phosphorylation after 8 min (Dok-1; after 8 min): had no effect
- PAG phosphorylation after 3 min (PAG): inhibition
- Symptoms of passive systemic anaphylaxis, histamine levels in mice blood [4]: found to reduce

Substance: CCNYG (derived from human sequence) [C3a13]
- Inhibition of IgE-mediated β-hexosaminidase release from RBL-2H3 cells (RBL-2H3 cells): shown to inhibit

Substance: DSSNYIR [C3a11]
- Inhibition of IgE-mediated β-hexosaminidase release from RBL-2H3 cells (RBL-2H3 cells): shown to inhibit

Substance: RTIYNSSDS (RTIYNSSDS-NH2) [C3a55, reference compound]
- Symptoms of passive systemic anaphylaxis, histamine levels in mice blood [4]: ineffective
